In PubChem BioAssay (NCI):
Where “and” joins values, the source holds several entries; their conditions need not be identical. Identical values can stand only once.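 Compound exposure: 48 hours, 5 concentrations, 96-well plates. Abbreviation: GI50, concentration required for 50% inhibition of growth. TGI denotes the concentration required for complete inhibition of growth.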

How the values were obtained:
Test in all cases: growth of human tumour cells (NCI), 48 h
DLD-1 colon = tested on: DLD-1 colon
SNB-19 CNS = tested on: SNB-19 CNS
NCI-H23 lung = tested on: NCI-H23 lung
HOP-92 NSCLC = tested on: HOP-92 NSCLC
A549 NSCLC = tested on: A549 NSCLC
HT29 colon = tested on: HT29 colon
786-0 renal = tested on: 786-0 renal
NCI-H460 lung = tested on: NCI-H460 lung
SK-MEL-2 melanoma = tested on: SK-MEL-2 melanoma
M14 melanoma = tested on: M14 melanoma

Row | Structure (SMILES) | TGI (DLD-1 colon) | TGI (SNB-19 CNS) | TGI (NCI-H23 lung) | TGI (HOP-92 NSCLC) | TGI (A549 NSCLC) | TGI (HT29 colon) | TGI (786-0 renal) | TGI (NCI-H460 lung) | TGI (SK-MEL-2 melanoma) | TGI (M14 melanoma) | GI50 (HT29 colon)
1 | C=C(c1ccccc1)C1(O)CCCCC1N (stereo unspecified) | > 100 µM | > 100 µM | > 100 µM | > 100 µM | > 100 µM | > 100 µM | > 100 µM | > 100 µM | > 100 µM | > 100 µM | –
2 | Cn1c(=O)c(N=Nc2c(=O)n(C)c(=O)n3c2[nH]c2ccccc23)c2[nH]c3ccccc3n2c1=O | > 100 µM | 61.1 µM | > 100 µM | > 100 µM | > 100 µM | > 100 µM | > 100 µM | > 100 µM | > 100 µM | > 100 µM | –
3 | O=C1C2C3C=C4c5ccccc5N(c5ccccc5)C4(C2C(=O)N1c1ccccc1)C1C(=O)N(c2ccccc2)C(=O)C31 (stereo unspecified) | > 100 µM | > 100 µM | > 100 µM | 6.29 µM | > 100 µM | > 100 µM | > 100 µM | > 100 µM | > 100 µM | > 100 µM | –
4 | Cc1ccc(S(=O)(=O)SC/C=C\CSS(=O)(=O)c2ccc(C)cc2)cc1 | > 100 µM and 47.7 µM | > 89.3 µM and 77.7 µM | 73.9 µM and 34.7 µM | > 72.7 µM and 37.9 µM | > 100 µM | > 62.8 µM and 39.7 µM | > 66.2 µM and 32.3 µM | > 94 µM and 99.4 µM | > 92.6 µM | 68.6 µM and 33.5 µM | 6.14 µM and 20.3 µM
5 | O=c1cc(-c2cccs2)[nH]c2cc3c(cc12)OCO3 | > 100 µM | > 100 µM | > 100 µM | > 100 µM | > 100 µM | > 74.7 µM | > 41.3 µM | > 39.1 µM | > 48 µM | > 100 µM | –
6 | CCOC(=O)Cc1nc2ccc3c(c2[nH]c1=O)C(=O)c1ccccc1C3=O | > 100 µM | > 100 µM | > 100 µM | > 100 µM | > 100 µM | > 100 µM | > 100 µM | > 100 µM | > 100 µM | > 100 µM | –
7 | COC(=O)/C(=N\NC(C)(C)C)C(C(=O)OC)C(=O)C(=O)Nc1cc(Cl)ccc1Cl (stereo unspecified) | > 100 µM | > 100 µM | > 100 µM | > 100 µM | > 100 µM | > 100 µM | > 100 µM | > 100 µM | > 100 µM | > 100 µM | –
8 | Cc1c(/C=N/NC(=O)c2ccccc2O)c(=O)n(-c2ccccc2)n1C | > 100 µM | > 100 µM | > 100 µM | > 100 µM | > 100 µM | > 100 µM | > 100 µM | > 100 µM | > 100 µM | > 100 µM | –
9 | COc1ccc2nccc(C3=CCC4CCN(C(=O)c5ccccc5)C3C4)c2c1 (stereo unspecified) | > 100 µM | > 100 µM | > 100 µM | > 100 µM | > 100 µM | > 100 µM | > 100 µM | > 100 µM | > 100 µM | > 100 µM | –
10 | Nc1ncnc2c1ncn2C1OC(CSCC(F)(F)F)C(O)C1O (stereo unspecified) | > 100 µM | > 100 µM | > 100 µM | > 100 µM | > 100 µM | > 100 µM | > 100 µM | > 100 µM | > 100 µM | > 100 µM | –
